Data set [1] is described as follows: Oral allantoin administration, plasma allantoin levels in monkeys. In kind it is in vivo, African green monkey. Here is the method:
To determine whether oral allantoin administration could increase plasma levels of allantoin in non-human primates, African green monkeys were fed allantoin (n=4). All monkeys were initially fed 26 mg/kg/day for 1 week, after which the allantoin concentration was increased to a level of 52 mg/kg/day for an additional week. The allantoin was mixed to the appropriate concentration in fruit juice and given to the monkeys to drink. For plasma analysis of allantoin venous blood was obtained from the right ventricle (rat) and collected from repeated blood draws (African green monkey). Blood was immediately centrifuged at 10,500 rpms (this needs to be in G) for 5 minutes. Supernatant was then removed and analyzed for allantoin. Enzymatic detection of allantoin was performed as previously described with the exception of reaction volumes being adjusted to accommodate the use of a 96 well microtiter plate (Muratsubaki et al., Enzymatic assay of allantoin in serum using allantoinase and allantoate amidohydrolase, Anal. Biochem. 359:161-166 (2006)). […] Following a 15 minute incubation, absorbance was read on a spectrometer at 340 nm. […] Following a 10 minute incubation absorbance was once again measured at 340 nm. The final absorbance was subtracted from the absorbance following the addition of allantoinase. […] Allantoin levels in plasma were determined utilizing the enzymatic detection assay. […]

For data set [2] the following is noted: in vivo; cited from earlier work.

Regarding `NC(=O)NC1NC(=O)NC1=O` (stereo not drawn) [allantoin], the plasma allantoin levels entry in data set [1] (African green monkey, oral, after one week at 52 mg/kg/day (following 1 week at 26 mg/kg/day), vs baseline, trough) is on record as “tripling”. Besides, in data set [1] (monkeys, oral allantoin 26 then 52 mg/kg/day, 1 week each), the negative health consequences result is reported as “Neither the rats nor the monkeys exhibited any obvious negative health consequences”. Further, the antioxidant properties entry in data set [2] is “antioxidant properties in vivo”.

These data come from patent publication US20120128654A1, “Allantoin Administration for the Treatment of Neurodegenerative Disease and Neurotrauma” (UNIVERSITY OF CINCINNATI, priority 2009, published 2012).
